Results on 17 molecules are retold here after patent US8361968B2 (Takeda Pharmaceutical Company Limited, priority 2002, dated 2013).

Numbered stars: 1 amine (or outer) side, 2 acyl side, 3 side chain; on linkers, the order of the positions; unused ones are H or OH. Square brackets hold non-standard residues; d marks the D form. Ends that are not written are not given here. Peptide text beside a SMILES is read from it. * marks the point of attachment. X11 = O=C(CNC(=S)[C@H](Cc1ccccc1)N[*:1])[*:2]; Acetyl(2-(4-imidazolyl)) = O=C(Cc1c[nH]cn1)*; 2Nal = N[C@@H](Cc1ccc2ccccc2c1)C(=O)O; Arg(Me) = CNC(=N)NCCC[C@H](N)C(=O)O; d3Pal = N[C@H](Cc1cccnc1)C(=O)O; Cha = N[C@@H](CC1CCCCC1)C(=O)O; azaGly = NNC(=O)O

In this experiment the target is hOT7T175 (Homo sapiens, UniProt Q969F8, L364H). Put plainly: Intracellular Ca ion level-increasing activity using FLIPR in hOT7T175/CHO. Type of experiment: cell-based. More on the design: expressed in transfected cells; host or cells: CHO/dhfr- cells, obtained from ATCC. As to conditions: relative, Metastin (1-54) = 1. As for the experimental part: Assay for Intracellular Ca Ion Level-Increasing Activity Using Flipr
In accordance with the method described in JPA 2000-312590, the intracellular Ca ion level-increasing activity was measured using FLIPR.
The stable expression cell line hOT7T175 was acquired by transduction of expression plasmid pAK-rOT175 for animal cells into CHO/dhff cells, using CellPhect Transfection Kit (Amersham Pharmacia Biotech, Inc.). First, 240 μL of Buffer A (attached to CellPhect Transfection Kit) was added to 9.6 μg of plasmid DNA dissolved in 240 μl of distilled water, followed by stirring. After settling the mixture for 10 minutes, 480 μL of Buffer B (attached to CellPhect Transfection Kit) was added to the mixture, which was vigorously stirred to form DNA-containing liposomes. Then, 4×10^5 CHO/dhff cells (obtained from ATCC) were inoculated on a 60 mm Petri dish. […] After culturing the cells at 37° C. for 6 hours in 5% carbon dioxide gas, the cells were washed twice with serum-free Ham's F-12 medium and 3 ml of 15% glycerol was added to the cells in the Petri dish to treat for 2 minutes. The cells were again washed twice with serum-free Ham's F-12 medium followed by incubation in Ham's F-12 medium supplemented with 10% fetal bovine serum at 37° C. for 15 hours in 5% carbon dioxide gas. The cells were dispersed by trypsin treatment and recovered from the Petri dish. The recovered cells were inoculated on a 6-well plate in 1.25×10^4 cells/well and incubation was initiated at 37° C. in Dulbecco's modified Eagle medium (DMEM) medium (Nissui Seiyaku Co., Ltd.) containing 10% dialyzed fetal bovine serum (JRH BIOSCIENCES, Inc.) under 5% carbon dioxide gas. […] The medium was exchanged on Days 1 and 2 to remove the cells died.
The intracellular Ca ion level-increasing activity of the synthetic peptide in hOT7T175/CHO was determined using FLIPR (Molecular Devices, Inc.).
hOT7T175/CHO was subcultured in DMEM supplemented with 10% dialyzed fetal bovine serum (hereinafter abbreviated as dFBS) and provided for the experiment (hereinafter abbreviated as 10% dFBS/DMEM). The hOT7T175/CHO was suspended in 10% dFBS-DMEM in 15×10^4 cells/ml. The suspension was inoculated on a 96-well plate for FLIPR (Black Plate Clear Bottom, Coster, Inc.) at 200 μL each (3.0×10^4 cells/200 μL/well), followed by incubation at 37° C. overnight in a 5% CO2 incubator (hereinafter simply referred to as the cell plate). Then, 21 ml of HANKS/HBSS (9.8 g of HANKS, 0.35 g of sodium hydrogencarbonate, 20 ml of 1M HEPES; after adjusting the pH to 7.4 with 1N sodium hydroxide, the mixture was sterilized by filtration), 210 μl of 250 mM Probenecid and […] of fetal bovine serum (FBS) were mixed (HANKS/HBSS-Probenecid-FBS).
Furthermore, 2 vials of Fluo3-AM (50 μug/vial) were dissolved in 21 μL of dimethylsulfoxide and 21 μL of 20% Pluronic acid. The resulting solution was added to and mixed with 10 ml of HANKS/HBSS-Probenecid-FBS described above. After the culture medium was removed, the mixture was dispensed onto the cell plate in 100 μL each/well, followed by incubation at 37° C. for an hour in a 5% CO2 incubator (pigment loading). The peptide was dissolved in dimethylsulfoxide in 1×10^−3 M. The peptide solution was diluted with HANKS/HBSS containing 2.5 mM Probenecid, 0.2% BSA and 0.1% CHAPS.

Sequence of hOT7T175 (Q969F8 whole entry L364H): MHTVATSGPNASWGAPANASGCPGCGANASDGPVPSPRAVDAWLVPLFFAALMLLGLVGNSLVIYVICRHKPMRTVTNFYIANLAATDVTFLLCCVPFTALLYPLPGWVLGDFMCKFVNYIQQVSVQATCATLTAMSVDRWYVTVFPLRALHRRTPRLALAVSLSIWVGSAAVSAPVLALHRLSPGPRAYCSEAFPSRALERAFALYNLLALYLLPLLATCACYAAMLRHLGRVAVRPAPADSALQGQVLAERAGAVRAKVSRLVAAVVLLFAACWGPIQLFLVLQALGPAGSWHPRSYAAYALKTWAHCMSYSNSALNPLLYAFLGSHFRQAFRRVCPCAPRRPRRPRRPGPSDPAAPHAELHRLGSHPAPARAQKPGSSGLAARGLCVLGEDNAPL

`CCNC(=N)NCCC[C@H](NC(=O)[C@H](CC(C)C)NC(=O)CNC(=O)[C@H](Cc1ccccc1)NC(=O)[C@H](CO)NC(=O)[C@H](CC(N)=O)NC(=O)[C@H](Cc1c[nH]c2ccccc12)NC(=O)[C@H](CC(N)=O)NC(=O)[C@H](N)Cc1ccc(O)cc1)C(=O)N[C@@H](Cc1ccccc1)C(N)=O` [Compound No. 192]: the “Specific Activity (intracellular Ca ion level-increasing activity)” value amounted to 1.

In the case of `CC(C)C[C@H](NC(=O)CNC(=O)[C@H](Cc1ccc2ccccc2c1)NC(=O)[C@H](CO)NC(=O)[C@H](CC(N)=O)NC(=O)[C@H](Cc1c[nH]c2ccccc12)NC(=O)[C@H](CC(N)=O)NC(=O)[C@@H](N)Cc1ccc(O)cc1)C(=O)N[C@@H](CCCNC(=N)N)C(=O)N[C@@H](Cc1ccccc1)C(N)=O` [Compound No. 152, Tyr-Asn-Trp-Asn-Ser-Nal(2)-Gly-Leu-Arg-Phe-NH2] (H-YNWNS[2Nal]GLRF-NH2), the “Specific Activity (intracellular Ca ion level-increasing activity)” value turned out to be 5.

On to “Tyr-Asn-Trp-Asn-Ser-Phe-Gly-Ala-Arg-Phe-NH2 (YNWNSFGARF-NH2) [Compound No. 45]”, for which the “Specific Activity (intracellular Ca ion level-increasing activity)” value was determined as 1.

For `CNC(=N)NCCC[C@H](NC(=O)[C@H](CC(C)C)NC(=O)CNC(=O)[C@H](Cc1ccccc1)NC(=O)[C@@H](NC(=O)[C@H](CC(N)=O)NC(=O)[C@H](Cc1c[nH]c2ccccc12)NC(=O)[C@H](CC(N)=O)NC(=O)[C@H](N)Cc1ccc(O)cc1)[C@@H](C)O)C(=O)N[C@@H](Cc1ccccc1)C(N)=O` [Compound No. 211] (H-[dY]NWNTFGL[Arg(Me)]F-NH2; N-terminus assumed), the “Specific Activity (intracellular Ca ion level-increasing activity)” value was 10.

As for `CNC(=N)NCCC[C@H](NC(=O)[C@H](CC(C)C)NC(=O)NNC(=O)[C@H](Cc1ccccc1)NC(=O)[C@H](CO)NC(=O)[C@H](CC(N)=O)NC(=O)Cc1c[nH]cn1)C(=O)N[C@@H](Cc1ccccc1)C(N)=O` [Compound No. 323, 4-Imidazoleacetyl-Asn-Ser-Phe-AzaGly-Leu-Arg(Me)-Phe-NH2] ({Acetyl(2-(4-imidazolyl))}-NSF[azaGly]L[Arg(Me)]F-NH2), the “Specific Activity (intracellular Ca ion level-increasing activity)” value was found to be 1.

On to `CC(C)C[C@H](NC(=O)CNC(=O)[C@H](Cc1ccccc1)NC(=O)[C@H](CO)NC(=O)[C@H](CC(N)=O)NC(=O)[C@H](Cc1c[nH]c2ccccc12)NC(=O)[C@H](CC(N)=O)NC(=O)[C@@H](N)Cc1ccc(O)cc1)C(=O)N[C@@H](CCCNC(=N)N)C(=O)N[C@@H](Cc1ccc(F)c(F)c1)C(N)=O` [Compound No. 198], for which the “Specific Activity (intracellular Ca ion level-increasing activity)” value is reported as 10.

As for `CC[C@H](C)[C@H](NC(=O)[C@H](CC(N)=O)NC(=O)[C@H](N)Cc1ccc(O)cc1)C(=O)N[C@@H](CC(N)=O)C(=O)N[C@@H](CO)C(=O)N[C@@H](Cc1ccccc1)C(=O)NCC(=O)N[C@@H](CC(C)C)C(=O)N[C@@H](CCCNC(=N)NC)C(=O)N[C@@H](Cc1ccccc1)C(N)=O` [Compound No. 206] (H-[dY]NINSFGL[Arg(Me)]F-NH2), the “Specific Activity (intracellular Ca ion level-increasing activity)” value is given as 10.

As for `CC(C)C[C@H](NC(=O)CNC(=O)[C@H](Cc1ccccc1)NC(=O)[C@H](CO)NC(=O)[C@H](CC(N)=O)NC(=O)[C@H](Cc1c[nH]c2ccccc12)NC(=O)[C@H](CC(N)=O)NC(=O)[C@H](Cc1ccc(O)cc1)NC(=O)OCC1c2ccccc2-c2ccccc21)C(=O)N[C@@H](CCCNC(=N)N)C(=O)N[C@@H](Cc1ccccc1)C(N)=O` [Compound No. 31], the “Specific Activity (intracellular Ca ion level-increasing activity)” value amounted to 2.

As for `CCCNC(=N)NCCC[C@H](NC(=O)[C@H](CC(C)C)NC(=O)CNC(=O)[C@H](Cc1ccccc1)NC(=O)[C@H](CO)NC(=O)[C@H](CC(N)=O)NC(=O)[C@H](Cc1c[nH]c2ccccc12)NC(=O)[C@H](CC(N)=O)NC(=O)[C@H](N)Cc1ccc(O)cc1)C(=O)N[C@@H](Cc1ccccc1)C(N)=O` [Compound No. 193], the “Specific Activity (intracellular Ca ion level-increasing activity)” value is given as 001.

As to `CNC(=N)NCCC[C@H](NC(=O)[C@H](CC(C)C)NC(=O)NNC(=O)[C@H](Cc1ccccc1)NC(=O)[C@H](CO)NC(=O)[C@H](CC(N)=O)NC(=O)[C@H](Cc1ccccc1)NC(=O)[C@H](CC(N)=O)NC(=O)[C@H](N)Cc1ccc(O)cc1)C(=O)N[C@@H](Cc1ccccc1)C(N)=O` [Compound No. 244, D-Tyr-Asn-Phe-Asn-Ser-Phe-AzaGly-Leu-Arg(Me)-Phe-NH2] (H-[dY]NFNSF[azaGly]L[Arg(Me)]F-NH2; N-terminus assumed), the “Specific Activity (intracellular Ca ion level-increasing activity)” value came out at 1.

Take `CC(C)C[C@H](NC(=O)CNC(=O)[C@H](Cc1ccccc1)NC(=O)[C@H](CO)NC(=O)[C@H](CC(N)=O)NC(=O)[C@H](Cc1c[nH]c2ccccc12)NC(=O)[C@H](CC(N)=O)NC(=O)[C@@H](N)Cc1ccc(O)cc1)C(=O)N[C@@H](CCCNC(=N)N)C(=O)N[C@@H](Cc1ccc2ccccc2c1)C(N)=O` [Compound No. 110] (H-YNWNSFGLR[2Nal]-NH2): the “Specific Activity (intracellular Ca ion level-increasing activity)” value is listed as 20.

As for `CNC(=N)NCCC[C@H](NC(=O)[C@H](CC(C)C)NC(=O)NNC(=O)[C@H](Cc1ccccc1)NC(=O)[C@@H](NC(=O)[C@H](CC(N)=O)NC(=O)[C@H](Cc1c[nH]c2ccccc12)NC(=O)[C@H](CC(N)=O)NC(=O)[C@H](N)Cc1ccc(O)cc1)[C@@H](C)O)C(=O)N[C@@H](Cc1ccccc1)C(N)=O` [Compound No. 297, D-Tyr-Asn-Trp-Asn-Thr-Phe-AzaGly-Leu-Arg(Me)-Phe-NH2] (H-[dY]NWNTF[azaGly]L[Arg(Me)]F-NH2; N-terminus assumed), the “Specific Activity (intracellular Ca ion level-increasing activity)” value worked out at 1.

As for `CC(C)C[C@H](NC(=O)CNC(=O)[C@H](Cc1ccccc1)NC(=O)[C@H](CC(C)C)NC(=O)[C@H](CC(N)=O)NC(=O)[C@H](Cc1c[nH]c2ccccc12)NC(=O)[C@H](CC(N)=O)NC(=O)[C@@H](N)Cc1ccc(O)cc1)C(=O)N[C@@H](CCCNC(=N)N)C(=O)N[C@@H](Cc1ccccc1)C(N)=O` [Compound No. 24] (H-YNWNLFGLRF-NH2), the “Specific Activity (intracellular Ca ion level-increasing activity)” value is 1.

Take `CC(C)C[C@H](NC(=O)CNC(=O)[C@H](Cc1ccccc1)NC(=O)[C@H](CO)NC(=O)[C@H](CC(N)=O)NC(=O)[C@H](Cc1c[nH]c2ccccc12)NC(=O)[C@H](CC(N)=O)NC(=O)[C@@H](N)Cc1ccc(O)cc1)C(=O)N[C@@H](CCNC(=N)N)C(=O)N[C@@H](Cc1ccccc1)C(N)=O` [Compound No. 310]: the “Specific Activity (intracellular Ca ion level-increasing activity)” value is 3.

For `CC(C)C[C@H](NC(=O)CNC(=S)[C@H](Cc1ccccc1)NC(=O)[C@H](CO)NC(=O)[C@H](CC(N)=O)NC(=O)[C@H](Cc1c[nH]c2ccccc12)NC(=O)[C@H](CC(N)=O)NC(=O)[C@@H](N)Cc1ccc(O)cc1)C(=O)N[C@@H](CCCNC(=N)N)C(=O)N[C@@H](Cc1ccccc1)C(N)=O` [Compound No. 166, Tyr-Asn-Trp-Asn-Ser-Phe Ψ(CSNH)Gly-Leu-Arg-Phe-NH2] (H-YNWNS[X11]LRF-NH2), the “Specific Activity (intracellular Ca ion level-increasing activity)” value was 5.

On to “3-Pyridylpropionyl-Asn-Ser-Phe-AzaGly-Leu-Arg(Me)-Trp-NH2 [Compound No. 386]”, for which the “Specific Activity (intracellular Ca ion level-increasing activity)” value is given as 7.

Consider `CNC(=N)NCCC[C@H](NC(=O)[C@H](CC(C)C)NC(=O)NNC(=O)[C@H](Cc1ccccc1)NC(=O)[C@H](CO)NC(=O)[C@H](CC(N)=O)NC(=O)[C@H](CC1CCCCC1)NC(=O)[C@@H](CC(N)=O)NC(=O)[C@H](N)Cc1cccnc1)C(=O)N[C@@H](Cc1ccccc1)C(N)=O` [Compound No. 290, D-Pya(3)-D-Asn-Cha-Asn-Ser-Phe-AzaGly-Leu-Arg(Me)-Phe-NH2] (H-[d3Pal][dN][Cha]NSF[azaGly]L[Arg(Me)]F-NH2), for which the “Specific Activity (intracellular Ca ion level-increasing activity)” value amounted to 1.
